For orientation: melting point means the temperature, or range, at which the solid turns liquid. In turn, `CCN1C(=O)C(C(=O)Nc2cccc(C(=O)Nc3ccccc3)c2)c2cc(C(C)=O)ccc21` (stereo not drawn) [Example 1, 5-Acetyl-1-ethyl-2-oxo-2,3-dihydro-1H-indole-3-carboxylic acid (3-phenylcarbamoyl-phenyl)-amide] had a melting point of 173 to 175 °C.
The result for `CCN1C(=O)C(C(=O)Nc2cccc(C(=O)Nc3ccc(I)cc3)c2)c2cc(C(C)=O)ccc21` (stereo not drawn) [Example 9, 5-Acetyl-1-ethyl-2-oxo-2,3-dihydro-1H-indole-3-carboxylic acid [3-(4-iodo-phenylcarbamoyl)-phenyl]-amide] reads 205 to 210 °C; that for `CC(=O)c1ccc2c(c1)C(C(=O)Nc1cccc(C(=O)Nc3ccccc3)c1)C(=O)N2C` (stereo not drawn) [Example 12, 5-Acetyl-1-methyl-2-oxo-2,3-dihydro-1H-indole-3-carboxylic acid (3-phenylcarbamoyl-phenyl)-amide], 178 to 179 °C.
For `CCC(=O)c1ccc2c(c1)C(C(=O)Nc1cccc(C(=O)Nc3ccccc3)c1)C(=O)N2CC` (stereo not drawn) [Example 14, 1-Ethyl-2-oxo-5-propionyl-2,3-dihydro-1H-indole-3-carboxylic acid (3-phenylcarbamoyl-phenyl)-amide] the value was 179 to 180 °C; for `CC(=O)c1ccc2c(c1)C(C(=O)Nc1cccc(C(=O)Nc3ccccc3)c1)C(=O)N2CC(F)(F)F` (stereo not drawn) [Example 16, 5-Acetyl-2-oxo-1-(2,2,2-trifluoro-ethyl)-2,3-dihydro-1H-indole-3-carboxylic acid (3-phenylcarbamoyl-phenyl)-amide], 197 to 203 °C; for `O=C(N[C@@H](Cc1ccccc1)C(=O)N1CCOCC1)c1cc2cc(Cl)sc2[nH]1` [Example 19, 2-Chloro-6H-thieno[2,3-b]pyrrole-5-carboxylic acid [(1S)-benzyl-2-morpholin-4-yl-2-oxo-ethyl]-amide], 108 to 110 °C.

(Values after patent US20030004162A1, “Use of glycogen phosphorylase inhibitors” (priority 2000, published 2003).)
